Measurements from patent publication US8940775B2, “Use of derivatives of pentaphyrine as antimicrobial and disinfectant agents” (Universita' Degli Studi di Udine, priority 2010, dated 2015).
“And” between values parts separate entries of the source, which are not always exact repeats. Equal values may be shown once.

Legend:
Type in all cases: cell-based
[1] = test system: Gram-positive bacterial population of the genus Enterococcus; test: Photo-oxidation test on primary effluent of a purification plant; conditions: PCCox 20 μM
Method: FIG. 12. Photo-oxidation test for evaluating the antibacterial activity of the pentaphyrine PCCox (concentration of solution 20 μM) on a real sample, in this case primary effluent of a purification plant for treating municipal waste. The activity of PCCox was evaluated with respect to the Gram-positive bacterial population of the genus Enterococcus, which is present in the sample treated at a concentration equal to 10^4 CFU/mL. The test was carried out with a source of blue light (473 nm) at a luminous intensity equal to 50 W/m^2. The percentage survival of enterococci following treatment with PCCox, in the experimental conditions, is equal to 31%. […]
(§1) The photo-oxidation tests were performed on a culture volume equal to 1 mL, using a plate with 48 wells with diameter of 1 cm and capacity of 1.5 mL. […] The intrinsic toxicity, i.e. the toxicity not induced by the light, of the PCCox was evaluated on bacterial cultures of S. aureus and E. hirae incubated for 60 minutes in the dark with various concentrations of PCCox: in FIG. 3 are reported the results obtained on S. aureus; similar results were obtained with E. hirae. […]
(§2) At each time interval, a volume of bacterial suspension of 100 μL is taken and is diluted in PBS 0.01 M using an optimum dilution factor for the bacterial culture. […] These samples are analysed at the end of the treatment. […]

S. aureus ATCC 6538 = test: Photo-oxidation test, antibacterial activity on S. aureus; conditions: for Percentage bacterial load die-off: initial 10^8 CFU/ml S. aureus, 100 W lamp, 40 W/m^2
Method: The bacterial strains used in the photo-oxidation tests are S. aureus ATCC 6538 and E. hirae ATCC 10541. The bacterial culture in exponential phase is obtained by inoculation in 10 mL of Nutrient Broth No. 2 and incubation at 37° C. Next the culture is centrifuged for 15 minutes at 3200 rpm and the pellet is resuspended in PBS 0.01 M in order to obtain a bacterial concentration equal to about 10^8 CFU/mL (Abs600≈0.1). This suspension was used for the photo-oxidation tests in the conditions described hereunder.
The photo-oxidative treatment was carried out using various light sources: • Lamp A: 100 W incandescent lamp, able to irradiate the bacterial suspension with a fluence rate equal to 40 W/m^2. The […] component of the luminous radiation is removed by filtering the light through a layer of water equal to 0.5 cm; • Lamp B: blue LED lamp, with maximum emission at 473 nm, connected to a power supply that controls its fluence rate between 24 and 50 W/m^2; • Lamp C: lamp with blue LED, with maximum emission at 473 nm, with a fluence rate equal to 10 W/m^2; • Lamp D: lamp with red LED, with maximum emission at 635 nm, with a fluence rate equal to 10 W/m^2.
(§3) The luminous intensity supplied by the light sources was evaluated by radiometer (DeltaOhm HD 2302.0 equipped with LP 471 RAD sensor).
The photo-oxidation tests were performed on a culture volume equal to 1 mL, using a plate with 48 wells with diameter of 1 cm and capacity of 1.5 mL. The multi-well plate is positioned above a magnetic stirrer and under the light source. A volume of a 330 μM solution of PCCox in DMSO is added to the bacterial suspension in order to obtain various concentrations of the photosensitizer (0.05 μM, 0.5 μM, 5 μM and 20 μM). The solution is stirred by small magnetic anchors throughout the treatment. The intrinsic toxicity, i.e. the toxicity not induced by the light, of the PCCox was evaluated on bacterial cultures of S. aureus and E. hirae incubated for 60 minutes in the dark with various concentrations of PCCox: in FIG. 3 are reported the results obtained on S. aureus; similar results were obtained with E. hirae. The percentage of DMSO present in the culture treated never exceeds 6%. […] In FIG. 4 are reported the results obtained with E. hirae; similar results were obtained with S. aureus.
The duration of the treatment is different for S. aureus (15, 30 and 60 minutes) and E. hirae (60 and 120 minutes).
The influence of a step of incubation of the bacterial culture in the dark in the presence of the molecule was evaluated before the irradiation step. In FIG. 5 are reported the results obtained with S. aureus.
At each time interval, a volume of bacterial suspension of 100 μL is taken and is diluted in PBS 0.01 M using an optimum dilution factor for the bacterial culture. From each dilution, 100 μL of bacterial suspension is taken (1000 μL is taken from the samples of primary effluent), seeded in MSA medium for S. aureus and Mf-Enterococcus Selective Agar for E. hirae on Petri dishes and incubated in the dark at 37° C. for 18-24 hours. The same procedure is carried out for the control samples, used for testing the activity of PCCox in the dark and the vitality of the bacterial suspension, without photosensitizer, exposed to the light or incubated in the dark. These samples are analysed at the end of the treatment. Each test is carried out at least in triplicate, and the survival data in terms of CFU/mL are expressed as the mean and standard deviation. The percentage survival is calculated respect to the concentration of bacteria measured on the control sample exposed to the light, analysed at the end of the test.

E. hirae ATCC 10541 = test: Photo-oxidation test, antibacterial activity on E. hirae; conditions: PCCox 20 μM; 120 min of illumination with lamp B at 50 W/m2; preliminary tests
Method: The bacterial strains used in the photo-oxidation tests are S. aureus ATCC 6538 and E. hirae ATCC 10541. The bacterial culture in exponential phase is obtained by inoculation in 10 mL of Nutrient Broth No. 2 and incubation at 37° C. Next the culture is centrifuged for 15 minutes at 3200 rpm and the pellet is resuspended in PBS 0.01 M in order to obtain a bacterial concentration equal to about 10^8 CFU/mL (Abs600≈0.1). This suspension was used for the photo-oxidation tests in the conditions described hereunder. […]
as §3, §1, §2

S. aureus = test: Intrinsic toxicity of PCCox in the dark on bacterial cultures; conditions: no light activation
Method: FIG. 3. Toxicity test of the pentaphyrine PCCox evaluating the vitality of a bacterial culture of S. aureus incubated for 60 minutes in the dark with various concentrations of 20-(4-carboxyphenyl)-2,13-dimethyl-3,12-diethyl-[22] pentaphyrine (PCCox) (0.05 μM, 0.5 μM and 5 μM).
The photo-oxidation tests were performed on a culture volume equal to 1 mL, using a plate with 48 wells with diameter of 1 cm and capacity of 1.5 mL. The multi-well plate is positioned above a magnetic stirrer and under the light source. A volume of a 330 μM solution of PCCox in DMSO is added to the bacterial suspension in order to obtain various concentrations of the photosensitizer (0.05 μM, 0.5 μM, 5 μM and 20 μM). […] The intrinsic toxicity, i.e. the toxicity not induced by the light, of the PCCox was evaluated on bacterial cultures of S. aureus and E. hirae incubated for 60 minutes in the dark with various concentrations of PCCox: in FIG. 3 are reported the results obtained on S. aureus; similar results were obtained with E. hirae. […]
At each time interval, a volume of bacterial suspension of 100 μL is taken and is diluted in PBS 0.01 M using an optimum dilution factor for the bacterial culture. […] These samples are analysed at the end of the treatment. Each test is carried out at least in triplicate, and the survival data in terms of CFU/mL are expressed as the mean and standard deviation. […]

Q: With `CCC1=C(C)c2cc3nc(c(-c4ccc(C(=O)O)cc4)c4ccc(cc5nc(cc6ccc(cc1n2)[nH]6)C(CC)=C5C)[nH]4)C=C3` [PCCox, 20-(4-carboxyphenyl)-2,13-dimethyl-3,12-diethyl-[22] pentaphyrine] as the molecule, how does the “percentage survival of enterococci” value ([1]; primary effluent, 10^4 CFU/mL, blue light 473 nm, 50 W/m^2) read?
A: 31%

Q: What about the die-off ([1]; primary wastewater, in terms of E. hirae, blue light 50 W/m^2) of the same molecule?
A: up to 70%

Q: And the “Percentage bacterial load die-off” value (S. aureus ATCC 6538; PCCox 0.05 μM, 15 min)?
A: 99.77%

Q: What about the “Percentage bacterial load die-off” value (S. aureus ATCC 6538; PCCox 0.05 μM, 30 min) of the same molecule?
A: 99.9% and 99.89%

Q: And the bacterial load die-off (S. aureus ATCC 6538; PCCox 0.05 μM, 30 min of treatment, lamp A)?
A: 3 log

Q: What about the “Percentage bacterial load die-off” value (S. aureus ATCC 6538; PCCox 0.05 μM, 60 min) of the same molecule?
A: 99.97%

Q: And the “Percentage bacterial load die-off” value (S. aureus ATCC 6538; PCCox 0.5 μM, 15 min)?
A: 100%

Q: And the “Percentage bacterial load die-off” value (S. aureus ATCC 6538; PCCox 0.5 μM, 30 min)?
A: 99.99%

Q: What about the “Percentage bacterial load die-off” value (S. aureus ATCC 6538; PCCox 0.5 μM, 60 min) of the same molecule?
A: 100%

Q: And the “Percentage bacterial load die-off” value (S. aureus ATCC 6538; PCCox 5 μM, 15 min)?
A: 99.9988%

Q: What about the “Percentage bacterial load die-off” value (S. aureus ATCC 6538; PCCox 5 μM, 30 min) of the same molecule?
A: 100%

Q: And the “Percentage bacterial load die-off” value (S. aureus ATCC 6538; PCCox 5 μM, 60 min)?
A: 100%

Q: And the die-off (S. aureus ATCC 6538; PCCox 5 μM, 60 min with lamp A (100 W, 40 W/m^2), initial load 10^11-10^13 CFU/ml)?
A: 10 log

Q: What about the die-off (S. aureus ATCC 6538; PCCox 5 μM, blue LED, maximum emission 473 nm, fluence rate between 24 and 50 W/m^2) of the same molecule?
A: 10 log

Q: And the bactericidal effect (S. aureus ATCC 6538; PCCox 5 μM, lamp C blue LED at 10 W/m^2, 60 min of illumination, pre-incubation 1 h in the dark)?
A: 3 log

Q: And the “influence of incubation time on bactericidal efficiency” value (S. aureus ATCC 6538; PCCox 5 μM, with or without pre-incubation in the dark for 1 h, blue light 24 W/m^2)?
A: not influenced in any way by the incubation time

Q: What about the “initial bacterial load destroyed” value (S. aureus ATCC 6538; PCCox 5 μM, within 15 min of exposure to the light, initial load 10^8-10^13 CFU/ml) of the same molecule?
A: 99.999%

Q: What about the “bactericidal effect (phototoxic efficacy)” value (S. aureus ATCC 6538; white light (lamp A, 40 W/m^2), after 15 min of irradiation) of the same molecule?
A: 5 log

Q: What about the die-off (E. hirae ATCC 10541) of the same molecule?
A: 4 log

Q: And the “bactericidal activity in the dark” value (S. aureus)?
A: does not have bactericidal activity in the dark
